Test results taken from patent publication US7087610B2, “Benzothiazole antiviral agents” (priority 2004, dated 2006).

Tested on: single-round infectious reporter virus (HIV-1 envelope)
Test: HIV-1 single-round infectious luciferase reporter virus infection of HeLa CD4 cells
Assay type: cell-based
Conditions: Human immunodeficiency virus 1, HeLa, 72 h
Experimental: Cells: (virus production) human embryonic kidney cell line, 293, was propagated in Dulbecco's Modified Eagle Medium (Invitrogen, Carlsbad, Calif.) containing 10% fetal Bovine serum (FBS, Sigma, St. Louis, Mo.); (virus infection) human epithelial cell line, HeLa, expressing the HIV-1 receptor CD4 was propagated in Dulbecco's Modified Eagle Medium (Invitrogen, Carlsbad, Calif.) containing 10% fetal Bovine serum (FBS, Sigma, St. Louis, Mo.) and supplemented with 0.2 mg/mL Geneticin (Invitrogen, Carlsbad, Calif.).
Virus: single-round infectious reporter virus was produced by co-transfecting human embryonic kidney 293 cells with an HIV-1 envelope DNA expression vector and a proviral cDNA containing an envelope deletion mutation and the luciferase reporter gene inserted in place of HIV-1 nef sequences. Transfections were performed using lipofectAMINE PLUS reagent as described by the manufacturer (Invitrogen, Carlsbad, Calif.).
Experiment: HeLa CD4 cells were plated in 96 well plates at a cell density of 1×10^4 cells per well in 100 μl Dulbecco's Modified Eagle Medium containing 10 % fetal Bovine serum and incubated overnight. Compound was added in a 2 μl dimethylsulfoxide solution, so that the final assay concentration would be ≦10 μM. Single-round infectious reporter virus (100 μL) in Dulbecco's Modified Eagle Medium was then added to the plated cells and compound at an approximate multiplicity of infection (MOI) of 0.01, resulting in a final volume of 200 μl per well. Virally-infected cells were incubated at 37 degrees Celsius, in a CO2 incubator, and harvested 72 h after infection. Viral infection was monitored by measuring luciferase expression from viral DNA in the infected cells using a luciferase reporter gene assay kit, as described by the manufacturer (Roche Molecular Biochemicals, Indianapolis, Ind.). Infected cell supernatants were removed and 50 μl of lysis buffer was added per well. After 15 minutes, 50 μl of freshly-reconstituted luciferase assay reagent was added per well. Luciferase activity was then quantified by measuring luminescence using a Wallac microbeta luminescence reader.
The percent inhibition for each compound was calculated by quantifying the level of luciferase expression in cells infected in the presence of each compound as a percentage of that observed for cells infected in the absence of compound and subtracting such a determined value from 100. The effective concentration for fifty percent inhibition (EC50) was calculated with Microsoft Excel Xlfit curve fitting software. For each compound, curves were generated from percent inhibition calculated at 10 different concentrations by using a four paramenter logistic model (model 205).

SMILES | EC50
C[C@@H]1CN(C(=O)c2ccccc2)CCN1C(=O)C(C#N)c1nc2ccccc2s1 (stereo partly drawn) [Example 1, (R)-N-(benzoyl)-3-methyl-N′-[(benzothiazol-2-yl)-2-cyanoacetyl]-piperazine] | < 1000 nM
C[C@@H]1CN(C(=O)c2ccccc2)CCN1C(=O)C(=O)c1nc2ccccc2s1 [Example 2, (R)-N-(benzoyl)-3-methyl-N′-[(benzothiazol-2-yl)-2-oxoacetyl]-piperazine] | < 1000 nM
C[C@@H]1CN(C(=O)c2ccccc2)CCN1C(=O)C(=O)c1ccc2scnc2c1 [Example 4, (R)-N-(benzoyl)-3-methyl-N′-[(benzothiazol-5-yl)-2-oxoacetyl]piperazine] | < 1000 nM
C[C@@H]1CN(C(=O)c2ccccc2)CCN1C(=O)C(=O)c1ccc2sc(-n3cccc3)nc2c1 [Example 7] | < 1000 nM
C[C@@H]1CN(C(=O)c2ccccc2)CCN1C(=O)C(=O)c1ccc2sc(N)nc2c1 [Example 8] | < 1000 nM
